Measurements as given in patent US12453709B2, “Compositions and methods for treating autism” (priority 2013, dated 2025).
Marks after values point to notes of the source that are not given here.

Test system: male patients diagnosed with autism
Assay: Study HT 02-121: adverse events
Type: in vivo, human
Procedure: The purpose of this clinical study (referred to herein as “Study HT 02-121”; i.e., Example 6) was to determine whether L1-79 was a well-tolerated and clinically useful agent for the treatment of ASD, and to assess the PK and pharmacodynamics (PD) of four weeks of TID dosing with L1-79. […] The first cohort of 20 patients was comprised of three groups of patients: The first group of five patients received open-label L1-79 100 mg TID and underwent PK and EKG assessments. […] The PK and safety data from the open-label L1-79 100 mg TID group was submitted to FDA for review and acceptance before the second cohort was enrolled. The second cohort was procedurally identical to the first. The second cohort of 20 patients was comprised of the same three groups of patients but a dose of 200 mg TID was used instead of 100 mg TID. The key inclusion criteria were as follows: […] Safety was the primary endpoint of the study. The following safety endpoints were assessed: ECGs, physical exams, laboratory evaluations (hematology, chemistry and urinalysis), vital signs, including orthostatic blood pressure, adverse events (AEs) and concomitant medications. The incidence of AEs by primary system organ class and preferred term is presented in Table 7, and a listing of the AEs reported during the study is presented in Table 8. All AEs were mild to moderate in intensity and self-limited.

[1] = patient 01-011, OL 200 mg TID, treatment emergent Y, resolved
[2] = patient 02-001, OL 100 mg TID, treatment emergent Y, resolved
[3] = patient 02-018, DB 200 mg TID, treatment emergent Y, resolved

CC(N)(Cc1ccc(O)cc1)C(=O)O (racemic) [L1-79, α-methyl-DL-tyrosine]
1(20.0) n(%): Incidence of AEs: Cough (OL 200 mg TID, N = 6) | Incidence of AEs: Fatigue (OL 200 mg TID, N = 6) | Incidence of AEs: Immune system disorders (OL 200 mg TID, N = 6) | Incidence of AEs: Pyrexia (OL 200 mg TID, N = 6) | Incidence of AEs: Respiratory, thoracic & mediastinal disorders (OL 200 mg TID, N = 6) | Incidence of AEs: Seasonal allergy (OL 200 mg TID, N = 6)
possibly related: AE Relationship: fatigue (tiredness) (patient 01-016, OL 200 mg TID) | AE Relationship: anxiety (anxious) (patient 02-001, OL 100 mg TID) | AE Relationship: confusional state (mental confusion) (patient 02-001, OL 100 mg TID) | AE Relationship: intentional self-injury (self injurious behavior) (patient 02-001, OL 100 mg TID) | AE Relationship: irritability (patient 02-001, OL 100 mg TID) | AE Relationship: anxiety (anxious mood) (patient 02-018, DB 200 mg TID) | AE Relationship: blood thyroid stimulating hormone increased (elevated TSH) (patient 02-018, DB 200 mg TID) | AE Relationship: diarrhoea (diarrhea) (patient 02-018, DB 200 mg TID) | AE Relationship: generalized tonic-clonic seizer (grand mal seizure) (patient 02-023, DB 200 mg TID)
mild: AE Severity: crystal urine present (urine cystine crystal present) (patient 01-014, DB 200 mg TID, reported at 4-week follow-up visit, resolved) | AE Severity: fatigue (tiredness) (patient 01-016, OL 200 mg TID, treatment emergent Y, resolved) | AE Severity: crystal urine present (urine cystine crystal present) (patient 01-018, DB 200 mg TID, reported at 4-week follow-up visit, resolved) | AE Severity: anxiety (anxious) [2] | AE Severity: confusional state (mental confusion) [2] | AE Severity: intentional self-injury (self injurious behavior) [2] | AE Severity: irritability [2] | AE Severity: irritability (patient 02-002, OL 100 mg TID, treatment emergent Y, outcome unknown) | AE Severity: intentional self-injury (violent episodes of self injurious behavior) (patient 02-002, OL 100 mg TID, treatment emergent Y, resolving) | AE Severity: synoope (synoope) (patient 02-009, DB 100 mg TID, treatment emergent Y, resolved) | AE Severity: anxiety (anxious mood) [3] | AE Severity: otitis externa [3] | AE Severity: ear infection (patient 02-024, DB 200 mg TID, AE reported pre-treatment, resolving) | AE Severity: diarrhoea (diarrhea) (patient 02-024, DB 200 mg TID, treatment emergent Y, resolved)
not related: AE Relationship: cough (patient 01-011, OL 200 mg TID) | AE Relationship: pyrexia (fever) (patient 01-011, OL 200 mg TID) | AE Relationship: crystal urine present (urine cystine crystal present) (patient 01-014, DB 200 mg TID) | AE Relationship: diarrhoea (diarrhea) (patient 01-016, DB 200 mg TID) | AE Relationship: seasonal allergy (patient 01-016, OL 200 mg TID) | AE Relationship: crystal urine present (urine cystine crystal present) (patient 01-018, DB 200 mg TID) | AE Relationship: synoope (synoope) (patient 02-009, DB 100 mg TID) | AE Relationship: otitis externa (patient 02-018, DB 200 mg TID) | AE Relationship: diarrhoea (diarrhea) (patient 02-024, DB 200 mg TID) | AE Relationship: ear infection (patient 02-024, DB 200 mg TID, AE reported pre-treatment)
6 [e]: Number of AE events: All primary SOC (OL 100 mg TID, N = 5) | Number of AE events: Psychiatric disorders (OL 100 mg TID, N = 5)
moderate: AE Severity: cough [1] | AE Severity: pyrexia (fever) [1] | AE Severity: diarrhoea (diarrhea) (patient 01-016, DB 200 mg TID, treatment emergent Y, resolved) | AE Severity: seasonal allergy (patient 01-016, OL 200 mg TID, treatment emergent Y, not resolved) | AE Severity: blood thyroid stimulating hormone increased (elevated TSH) (patient 02-018, DB 200 mg TID, reported at 4-week follow-up visit, resolved) | AE Severity: diarrhoea (diarrhea) [3] | AE Severity: generalized tonic-clonic seizer (grand mal seizure) (patient 02-023, DB 200 mg TID, treatment emergent Y, resolved, discontinued Y)
2 [e]: Number of AE events: International self-injury (OL 100 mg TID, N = 5) | Number of AE events: Irritability (OL 100 mg TID, N = 5) | Number of AE events: General disorders & administration site conditions (OL 200 mg TID, N = 6)
1 [e]: Number of AE events: Anxiety (OL 100 mg TID, N = 5) | Number of AE events: Confusional state (OL 100 mg TID, N = 5) | Number of AE events: Cough (OL 200 mg TID, N = 6) | Number of AE events: Fatigue (OL 200 mg TID, N = 6) | Number of AE events: Immune system disorders (OL 200 mg TID, N = 6) | Number of AE events: Pyrexia (OL 200 mg TID, N = 6) | Number of AE events: Respiratory, thoracic & mediastinal disorders (OL 200 mg TID, N = 6) | Number of AE events: Seasonal allergy (OL 200 mg TID, N = 6)
0[0] n(%): Incidence of AEs: Nasopharyngitis (OL 100 mg TID, N = 5) | Incidence of AEs: Nervous system disorders (OL 100 mg TID, N = 5) | Incidence of AEs: Otitis externa (OL 100 mg TID, N = 5) | Incidence of AEs: Pyrexia (OL 100 mg TID, N = 5) | Incidence of AEs: Renal and urinary disorders (OL 100 mg TID, N = 5) | Incidence of AEs: Respiratory, thoracic & mediastinal disorders (OL 100 mg TID, N = 5) | Incidence of AEs: Seasonal allergy (OL 100 mg TID, N = 5) | Incidence of AEs: Syncope (OL 100 mg TID, N = 5) | Incidence of AEs: Urinary incontinence (OL 100 mg TID, N = 5) | Incidence of AEs: Agitation (OL 200 mg TID, N = 6) | Incidence of AEs: Amylase † (OL 200 mg TID, N = 6) | Incidence of AEs: Anxiety (OL 200 mg TID, N = 6) | Incidence of AEs: Blood TSH † (OL 200 mg TID, N = 6) | Incidence of AEs: Confusional state (OL 200 mg TID, N = 6) | Incidence of AEs: Crystal urine present (OL 200 mg TID, N = 6) | Incidence of AEs: Diarrhoea (OL 200 mg TID, N = 6) | Incidence of AEs: Ear infection (OL 200 mg TID, N = 6) | Incidence of AEs: GI disorders (OL 200 mg TID, N = 6) | Incidence of AEs: Generalized tonic-clonic seizure (OL 200 mg TID, N = 6) | Incidence of AEs: Infections and infestations (OL 200 mg TID, N = 6) | Incidence of AEs: International self-injury (OL 200 mg TID, N = 6) | Incidence of AEs: Investigations (OL 200 mg TID, N = 6) | Incidence of AEs: Irritability (OL 200 mg TID, N = 6) | Incidence of AEs: Nasopharyngitis (OL 200 mg TID, N = 6) | Incidence of AEs: Nervous system disorders (OL 200 mg TID, N = 6) | Incidence of AEs: Otitis externa (OL 200 mg TID, N = 6) | Incidence of AEs: Psychiatric disorders (OL 200 mg TID, N = 6) | Incidence of AEs: Renal and urinary disorders (OL 200 mg TID, N = 6) | Incidence of AEs: Syncope (OL 200 mg TID, N = 6) | Incidence of AEs: Urinary incontinence (OL 200 mg TID, N = 6)
probably related: AE Relationship: intentional self-injury (violent episodes of self injurious behavior) (patient 02-002, OL 100 mg TID) | AE Relationship: irritability (patient 02-002, OL 100 mg TID)
2(40.0) n(%): Incidence of AEs: Psychiatric disorders (OL 100 mg TID, N = 5) | Incidence of AEs: All primary SOC (OL 200 mg TID, N = 6) | Incidence of AEs: General disorders & administration site conditions (OL 200 mg TID, N = 6)
4 [e]: Number of AE events: All primary SOC (OL 200 mg TID, N = 6)
